Results reported in ChEMBL document CHEMBL3885861, “Open TG-GATES”.

Organism: Rattus norvegicus
Assay: Open TG-GATES - Regimen: Single
Format: toxicity, organism-based, Sprague-Dawley
Parameters: regimen Single, gender Male, age 6 weeks
Settings: in vivo, ip, route intraperitoneal injection; for APTT / Bas / Eos / Fbg / Hb / Lym / MCH / MCHC / Mono / Neu / PT / Plat / RBC / Ret / WBC / Ht / MCV: tissue Blood; for KIDNEY_L / KIDNEY_R / KIDNEY_TOTAL: tissue Kidney; for LIVER: tissue Liver; for ALP / ALT / AST / BUN / CRE / Ca / DBIL / GLC / IP / K / LDH / PL / RALB / TBIL / TC / TG / TP / gamma-GTP / Na: tissue Plasma
[1] = 0.3 mg/kg, 3 h, dose 300 ug/Kg, dose level Middle
[2] = 0.3 mg/kg, 6 h, dose 300 ug/Kg, dose level Middle
[3] = 0.3 mg/kg, 9 h, dose 300 ug/Kg, dose level Middle
[4] = 0.3 mg/kg, 24 h, dose 300 ug/Kg, dose level Middle
[5] = 3 mg/kg, 3 h, dose 3000 ug/Kg, dose level High
[6] = 3 mg/kg, 6 h, dose 3000 ug/Kg, dose level High
[7] = 3 mg/kg, 9 h, dose 3000 ug/Kg, dose level High
[8] = 3 mg/kg, 24 h, dose 3000 ug/Kg, dose level High

LPS
APTT [1]: 22.5 s
Bas [1]: 0%
Eos [1]: 0.3%
Fbg [1]: 152.7 mg/dL
Hb [1]: 13.6 g/dL
Lym [1]: 75%
MCH [1]: 21.8 pg
MCHC [1]: 32.9%
Mono [1]: 0.7%
Neu [1]: 24%
PT [1]: 17.9 s
Plat [1]: 65.5 x10_4/uL
RBC [1]: 625.3 x10_4/ul
Ret [1]: 9.1%
WBC [1]: 24.9 x10_2/uL
KIDNEY_L [1]: 1 g
KIDNEY_R [1]: 1 g
KIDNEY_TOTAL [1]: 2 g
LIVER [1]: 8.6 g
ALP [1]: 1337.3 IU/L
ALT [1]: 67.3 IU/L
AST [1]: 171 IU/L
BUN [1]: 12.7 mg/dL
CRE [1]: 0.2 mg/dL
Ca [1]: 9.7 mg/dL
DBIL [1]: 0.0533 mg/dL
GLC [1]: 138.7 mg/dL
IP [1]: 9.3 mg/dL
K [1]: 3.9 meq/L
LDH [1]: 487.3 IU/L
PL [1]: 134 mg/dL
RALB [1]: 2.2 g/dL
TBIL [1]: 0.2 mg/dL
TC [1]: 68.3 mg/dL
TG [1]: 96 mg/dL
TP [1]: 5 g/dL
gamma-GTP [1]: 1 IU/L
TERMINAL_BW [2]: 193.4 g
APTT [2]: 28.2 s
Bas [2]: 0%
Eos [2]: 1%
Fbg [2]: 185.7 mg/dL
Hb [2]: 13.6 g/dL
Ht [2]: 40.7%
Lym [2]: 56%
MCHC [2]: 33.3%
MCV [2]: 64.7 fL
Mono [2]: 1%
Neu [2]: 41.3%
PT [2]: 17.8 s
Plat [2]: 56 x10_4/uL
RBC [2]: 629.3 x10_4/ul
Ret [2]: 9.3%
WBC [2]: 34.8 x10_2/uL
KIDNEY_L [2]: 0.9 g
KIDNEY_R [2]: 0.9 g
KIDNEY_TOTAL [2]: 1.9 g
LIVER [2]: 8 g
ALP [2]: 1219 IU/L
ALT [2]: 143.7 IU/L
AST [2]: 272 IU/L
BUN [2]: 18.3 mg/dL
CRE [2]: 0.2 mg/dL
Ca [2]: 9.7 mg/dL
DBIL [2]: 0.1 mg/dL
GLC [2]: 140 mg/dL
IP [2]: 9.9 mg/dL
K [2]: 4 meq/L
LDH [2]: 1262.7 IU/L
Na [2]: 139.7 meq/L
PL [2]: 163.3 mg/dL
RALB [2]: 2.2 g/dL
TBIL [2]: 0.4 mg/dL
TC [2]: 103.7 mg/dL
TG [2]: 65.3 mg/dL
TP [2]: 5 g/dL
gamma-GTP [2]: 2.3 IU/L
TERMINAL_BW [3]: 188.8 g
APTT [3]: 22.1 s
Bas [3]: 0%
Eos [3]: 1%
Fbg [3]: 248.7 mg/dL
Hb [3]: 13.8 g/dL
Lym [3]: 51.3%
MCV [3]: 64.7 fL
Mono [3]: 1%
Neu [3]: 46.7%
Plat [3]: 59.9 x10_4/uL
RBC [3]: 643.7 x10_4/ul
Ret [3]: 8.7%
WBC [3]: 71 x10_2/uL
KIDNEY_L [3]: 0.9 g
KIDNEY_R [3]: 0.9 g
KIDNEY_TOTAL [3]: 1.9 g
LIVER [3]: 7.2 g
ALP [3]: 1291 IU/L
ALT [3]: 126.3 IU/L
AST [3]: 246.7 IU/L
BUN [3]: 16.3 mg/dL
CRE [3]: 0.2 mg/dL
Ca [3]: 10 mg/dL
DBIL [3]: 0.0533 mg/dL
GLC [3]: 139.3 mg/dL
IP [3]: 9.6 mg/dL
K [3]: 4.1 meq/L
LDH [3]: 1570.3 IU/L
Na [3]: 140.3 meq/L
PL [3]: 166.3 mg/dL
RALB [3]: 2.4 g/dL
TBIL [3]: 0.2 mg/dL
TC [3]: 119 mg/dL
TG [3]: 38 mg/dL
TP [3]: 5.4 g/dL
gamma-GTP [3]: 4.3 IU/L
TERMINAL_BW [4]: 189.4 g
APTT [4]: 19.4 s
Bas [4]: 0%
Eos [4]: 1%
Fbg [4]: 519 mg/dL
Hb [4]: 13.6 g/dL
Lym [4]: 61.7%
MCH [4]: 20.6 pg
MCHC [4]: 32.9%
Mono [4]: 2.7%
Neu [4]: 33.3%
PT [4]: 14.6 s
Plat [4]: 53.7 x10_4/uL
RBC [4]: 660.3 x10_4/ul
Ret [4]: 6.6%
WBC [4]: 82.4 x10_2/uL
KIDNEY_L [4]: 0.9 g
KIDNEY_R [4]: 0.9 g
KIDNEY_TOTAL [4]: 1.8 g
LIVER [4]: 9.2 g
ALP [4]: 1258 IU/L
ALT [4]: 36.7 IU/L
AST [4]: 71 IU/L
BUN [4]: 18.3 mg/dL
CRE [4]: 0.2 mg/dL
DBIL [4]: 0.01 mg/dL
GLC [4]: 181.3 mg/dL
IP [4]: 9.2 mg/dL
K [4]: 4.7 meq/L
LDH [4]: 64 IU/L
PL [4]: 176 mg/dL
RALB [4]: 2.7 g/dL
TBIL [4]: 0.07 mg/dL
TC [4]: 107 mg/dL
TG [4]: 47.7 mg/dL
TP [4]: 5.9 g/dL
gamma-GTP [4]: 1.7 IU/L
TERMINAL_BW [5]: 197.5 g
Bas [5]: 0.3%
Eos [5]: 0%
Fbg [5]: 186.3 mg/dL
Ht [5]: 40.6%
Lym [5]: 62.3%
MCV [5]: 66.6 fL
Mono [5]: 2%
Neu [5]: 34.7%
PT [5]: 17.1 s
Plat [5]: 83.4 x10_4/uL
RBC [5]: 608.7 x10_4/ul
Ret [5]: 9.7%
WBC [5]: 42.6 x10_2/uL
KIDNEY_L [5]: 0.9 g
KIDNEY_R [5]: 0.9 g
KIDNEY_TOTAL [5]: 1.9 g
LIVER [5]: 9.2 g
ALP [5]: 1326.7 IU/L
ALT [5]: 48 IU/L
AST [5]: 122.3 IU/L
BUN [5]: 15 mg/dL
CRE [5]: 0.2 mg/dL
Ca [5]: 10 mg/dL
DBIL [5]: 0.0233 mg/dL
GLC [5]: 148.7 mg/dL
K [5]: 4.1 meq/L
LDH [5]: 229.3 IU/L
RALB [5]: 2.2 g/dL
TBIL [5]: 0.0667 mg/dL
TC [5]: 78.3 mg/dL
TG [5]: 143 mg/dL
TP [5]: 4.8 g/dL
gamma-GTP [5]: 1.7 IU/L
TERMINAL_BW [6]: 192.5 g
APTT [6]: 25.9 s
Bas [6]: 0%
Eos [6]: 1%
Fbg [6]: 158.3 mg/dL
Lym [6]: 65.3%
MCHC [6]: 32.8%
MCV [6]: 64.5 fL
Mono [6]: 1%
Neu [6]: 31.7%
PT [6]: 18.2 s
Plat [6]: 47.4 x10_4/uL
RBC [6]: 627.3 x10_4/ul
Ret [6]: 8.9%
WBC [6]: 21.1 x10_2/uL
KIDNEY_L [6]: 1 g
KIDNEY_R [6]: 0.9 g
KIDNEY_TOTAL [6]: 1.9 g
LIVER [6]: 7.6 g
ALP [6]: 1321.7 IU/L
ALT [6]: 378.7 IU/L
AST [6]: 499.3 IU/L
BUN [6]: 23.3 mg/dL
CRE [6]: 0.2 mg/dL
Ca [6]: 9.5 mg/dL
DBIL [6]: 0.2 mg/dL
GLC [6]: 124.3 mg/dL
IP [6]: 10.4 mg/dL
K [6]: 4.4 meq/L
LDH [6]: 2239.3 IU/L
Na [6]: 140.3 meq/L
PL [6]: 156.7 mg/dL
RALB [6]: 2.2 g/dL
TBIL [6]: 0.3 mg/dL
TC [6]: 90 mg/dL
TG [6]: 87 mg/dL
TP [6]: 4.9 g/dL
gamma-GTP [6]: 2.7 IU/L
TERMINAL_BW [7]: 188.4 g
APTT [7]: 25 s
Bas [7]: 0%
Eos [7]: 1%
Fbg [7]: 180.7 mg/dL
Ht [7]: 41.4%
Lym [7]: 56%
MCHC [7]: 32.7%
MCV [7]: 64.7 fL
Mono [7]: 1%
Neu [7]: 42%
PT [7]: 17.9 s
Plat [7]: 27.3 x10_4/uL
RBC [7]: 641 x10_4/ul
Ret [7]: 8.6%
WBC [7]: 48.1 x10_2/uL
KIDNEY_L [7]: 0.9 g
KIDNEY_R [7]: 0.9 g
KIDNEY_TOTAL [7]: 1.9 g
LIVER [7]: 7.4 g
ALP [7]: 1439.3 IU/L
ALT [7]: 320.3 IU/L
AST [7]: 534.3 IU/L
BUN [7]: 29.7 mg/dL
CRE [7]: 0.2 mg/dL
Ca [7]: 9.5 mg/dL
DBIL [7]: 0.2 mg/dL
GLC [7]: 116 mg/dL
K [7]: 4.6 meq/L
LDH [7]: 1843.3 IU/L
Na [7]: 138.3 meq/L
PL [7]: 169.7 mg/dL
RALB [7]: 2.1 g/dL
TBIL [7]: 0.4 mg/dL
TC [7]: 115.7 mg/dL
TG [7]: 117.7 mg/dL
TP [7]: 4.8 g/dL
gamma-GTP [7]: 4 IU/L
TERMINAL_BW [8]: 191.8 g
APTT [8]: 23.8 s
Bas [8]: 0.7%
Eos [8]: 1%
Fbg [8]: 336 mg/dL
Hb [8]: 12.1 g/dL
Ht [8]: 37.4%
Lym [8]: 55.3%
MCHC [8]: 32.4%
MCV [8]: 64 fL
Mono [8]: 2%
Neu [8]: 40.7%
PT [8]: 15.3 s
Plat [8]: 41.9 x10_4/uL
RBC [8]: 583.3 x10_4/ul
Ret [8]: 7.7%
WBC [8]: 99.6 x10_2/uL
KIDNEY_L [8]: 0.9 g
KIDNEY_R [8]: 1 g
KIDNEY_TOTAL [8]: 1.9 g
LIVER [8]: 8.3 g
ALP [8]: 1299 IU/L
ALT [8]: 330.3 IU/L
AST [8]: 740.3 IU/L
BUN [8]: 31.7 mg/dL
CRE [8]: 0.2 mg/dL
DBIL [8]: 0.06 mg/dL
GLC [8]: 139 mg/dL
IP [8]: 9.4 mg/dL
K [8]: 4.4 meq/L
LDH [8]: 271.7 IU/L
RALB [8]: 2.2 g/dL
TBIL [8]: 0.2 mg/dL
TC [8]: 93.3 mg/dL
TG [8]: 45.3 mg/dL
TP [8]: 4.9 g/dL
gamma-GTP [8]: 6.7 IU/L
